Where two headings read alike, the source gives them in different places.
Assay: Single dose PK in healthy subjects (Cohorts 1, 2, S1 and S2), plasma
Format: in vivo, human
Settings: human, plasma, intravenous
Procedure: This study investigates (i) the safety and tolerability of Compound A (methyl (2R,3S)-3-((methylsulfonyl)amino)-2-(((cis-4-phenylcyclohexyl)oxy)methyl)piperidine-1-carboxylate) when a single dose given as a 9 hour continuous IV infusion is administered to healthy adults, healthy elderly subjects and patients with narcolepsy type 1 (NT1); (ii) the pharmacokinetics of Compound A when a single dose given as a 9 hour continuous IV infusion is administered to healthy adults, healthy elderly subjects and patients with narcolepsy type 1; and (iii) the pharmacodynamics (PD) effects of Compound A, primarily by evaluation of the sleep latency on MWT when a single dose given as a 9 hour continuous IV infusion is administered to patients with narcolepsy type 1.
Pharmacokinetics: Concentrations of Compound A in plasma, and CSF, and pharmacokinetics parameters.
On average, the time to reach the plateau appeared to be approximately 3 to 4 hours after the start of infusion. […] After switching off the IV infusion, Compound A plasma concentrations declined rapidly and in a biphasic manner with a mean terminal disposition phase t1/2z ranging approximately from 3.4 to 5.1 hours across all doses. […] Table 5 provides a summary of plasma concentrations of Compound A after a single IV infusion in healthy subjects. Table 6 provides a summary of pharmacokinetic parameters of Compound A after a single IV infusion in healthy subjects.

[1] = 14 mg, read-out: Plasma concentration, Maximum
[2] = 14 mg, read-out: Plasma concentration, Mean
[3] = 14 mg, read-out: Plasma concentration, Median
[4] = 14 mg, read-out: Plasma concentration, Minimum
[5] = 14 mg, read-out: Plasma concentration, Q1
[6] = 14 mg, read-out: Plasma concentration, Q3
[7] = 28 mg, read-out: Plasma concentration, Maximum
[8] = 28 mg, read-out: Plasma concentration, Mean
[9] = 28 mg, read-out: Plasma concentration, Median
[10] = 28 mg, read-out: Plasma concentration, Minimum
[11] = 28 mg, read-out: Plasma concentration, Q1
[12] = 28 mg, read-out: Plasma concentration, Q3

COC(=O)N1CCC[C@H](NS(C)(=O)=O)[C@@H]1CO[C@H]1CC[C@@H](c2ccccc2)CC1 [Compound A, methyl (2R,3S)-3-((methylsulfonyl)amino)-2-(((cis-4-phenylcyclohexyl)oxy)methyl)piperidine-1-carboxylate]
concentration at 3 hr (7 mg, 3 hr, read-out: Plasma concentration, Q1): 15.1 ng/mL | concentration at 3 h (7 mg, 3 hr, read-out: Plasma concentration, Q3): 18.8 ng/mL | concentration at 4 h (7 mg, 4 hr, read-out: Plasma concentration, Maximum): 20.6 ng/mL | concentration at 4 h (7 mg, 4 hr, read-out: Plasma concentration, Mean): 15.9 ng/mL | concentration at 4 h (7 mg, 4 hr, read-out: Plasma concentration, Median): 15.5 ng/mL | concentration at 4 h (7 mg, 4 hr, read-out: Plasma concentration, Minimum): 11.1 ng/mL | concentration at 4 hr (7 mg, 4 hr, read-out: Plasma concentration, Q1): 15.2 ng/mL | concentration at 4 h (7 mg, 4 hr, read-out: Plasma concentration, Q3): 17.6 ng/mL | concentration at 6 h (7 mg, 6 hr, read-out: Plasma concentration, Maximum): 15.9 ng/mL | concentration at 6 h (7 mg, 6 hr, read-out: Plasma concentration, Mean): 12.2 ng/mL | concentration at 6 h (7 mg, 6 hr, read-out: Plasma concentration, Median): 12.4 ng/mL | concentration at 6 h (7 mg, 6 hr, read-out: Plasma concentration, Minimum): 8.82 ng/mL | concentration at 6 hr (7 mg, 6 hr, read-out: Plasma concentration, Q1): 11.4 ng/mL | concentration at 6 h (7 mg, 6 hr, read-out: Plasma concentration, Q3): 12.5 ng/mL | concentration at 8 h (7 mg, 8 hr, read-out: Plasma concentration, Maximum): 16.1 ng/mL | concentration at 8 h (7 mg, 8 hr, read-out: Plasma concentration, Mean): 13 ng/mL | concentration at 8 h (7 mg, 8 hr, read-out: Plasma concentration, Median): 13.1 ng/mL | concentration at 8 h (7 mg, 8 hr, read-out: Plasma concentration, Minimum): 9.5 ng/mL | concentration at 8 hr (7 mg, 8 hr, read-out: Plasma concentration, Q1): 12.8 ng/mL | concentration at 8 h (7 mg, 8 hr, read-out: Plasma concentration, Q3): 13.4 ng/mL | concentration at 9 h (7 mg, 9 hr, read-out: Plasma concentration, Maximum): 15.2 ng/mL | concentration at 9 h (7 mg, 9 hr, read-out: Plasma concentration, Mean): 13.5 ng/mL | concentration at 9 h (7 mg, 9 hr, read-out: Plasma concentration, Median): 13.9 ng/mL | concentration at 9 h (7 mg, 9 hr, read-out: Plasma concentration, Minimum): 10.2 ng/mL | concentration at 9 hr (7 mg, 9 hr, read-out: Plasma concentration, Q1): 13.2 ng/mL | concentration at 9 h (7 mg, 9 hr, read-out: Plasma concentration, Q3): 15 ng/mL | concentration at 0.5 h [1]: 27.2 ng/mL | concentration at 0.5 h [2]: 22.5 ng/mL | concentration at 0.5 h [3]: 22.1 ng/mL | concentration at 0.5 h [4]: 18 ng/mL | concentration at 0.5 h [5]: 21.7 ng/mL | concentration at 0.5 h [6]: 23.9 ng/mL | concentration at 1 h [1]: 32.1 ng/mL | concentration at 1 h [2]: 26.6 ng/mL | concentration at 1 h [3]: 26.9 ng/mL | concentration at 1 h [4]: 21.8 ng/mL | concentration at 1 h [5]: 22.6 ng/mL | concentration at 1 h [6]: 29.7 ng/mL | concentration at 1.5 h [1]: 36.1 ng/mL | concentration at 1.5 h [2]: 30.4 ng/mL | concentration at 1.5 h [3]: 29 ng/mL | concentration at 1.5 h [4]: 27.4 ng/mL | concentration at 1.5 h [5]: 27.6 ng/mL | concentration at 1.5 h [6]: 33.6 ng/mL | concentration at 2 h (14 mg, 2 hr, read-out: Plasma concentration, Maximum): 37.8 ng/mL | concentration at 2 h (14 mg, 2 hr, read-out: Plasma concentration, Mean): 32.9 ng/mL | concentration at 2 h (14 mg, 2 hr, read-out: Plasma concentration, Median): 32 ng/mL | concentration at 2 h (14 mg, 2 hr, read-out: Plasma concentration, Minimum): 29.6 ng/mL | concentration at 2 h (14 mg, 2 hr, read-out: Plasma concentration, Q1): 30 ng/mL | concentration at 2 h (14 mg, 2 hr, read-out: Plasma concentration, Q3): 35.8 ng/mL | concentration at 3 h (14 mg, 3 hr, read-out: Plasma concentration, Maximum): 43.5 ng/mL | concentration at 3 h (14 mg, 3 hr, read-out: Plasma concentration, Mean): 35.8 ng/mL | concentration at 3 h (14 mg, 3 hr, read-out: Plasma concentration, Median): 34.3 ng/mL | concentration at 3 h (14 mg, 3 hr, read-out: Plasma concentration, Minimum): 31.8 ng/mL | concentration at 3 h (14 mg, 3 hr, read-out: Plasma concentration, Q1): 32.1 ng/mL | concentration at 3 h (14 mg, 3 hr, read-out: Plasma concentration, Q3): 39 ng/mL | concentration at 4 h (14 mg, 4 hr, read-out: Plasma concentration, Maximum): 40.4 ng/mL | concentration at 4 h (14 mg, 4 hr, read-out: Plasma concentration, Mean): 36.4 ng/mL | concentration at 4 h (14 mg, 4 hr, read-out: Plasma concentration, Median): 37 ng/mL | concentration at 4 h (14 mg, 4 hr, read-out: Plasma concentration, Minimum): 31 ng/mL | concentration at 4 h (14 mg, 4 hr, read-out: Plasma concentration, Q1): 33 ng/mL | concentration at 4 h (14 mg, 4 hr, read-out: Plasma concentration, Q3): 40 ng/mL | concentration at 6 h (14 mg, 6 hr, read-out: Plasma concentration, Maximum): 35.2 ng/mL | concentration at 6 h (14 mg, 6 hr, read-out: Plasma concentration, Mean): 29.3 ng/mL | concentration at 6 h (14 mg, 6 hr, read-out: Plasma concentration, Median): 29.7 ng/mL | concentration at 6 h (14 mg, 6 hr, read-out: Plasma concentration, Minimum): 23.1 ng/mL | concentration at 6 h (14 mg, 6 hr, read-out: Plasma concentration, Q1): 23.9 ng/mL | concentration at 6 h (14 mg, 6 hr, read-out: Plasma concentration, Q3): 34.4 ng/mL | concentration at 8 h (14 mg, 8 hr, read-out: Plasma concentration, Maximum): 34.4 ng/mL | concentration at 8 h (14 mg, 8 hr, read-out: Plasma concentration, Mean): 28.9 ng/mL | concentration at 8 h (14 mg, 8 hr, read-out: Plasma concentration, Median): 29.9 ng/mL | concentration at 8 h (14 mg, 8 hr, read-out: Plasma concentration, Minimum): 22.6 ng/mL | concentration at 8 h (14 mg, 8 hr, read-out: Plasma concentration, Q1): 24.6 ng/mL | concentration at 8 h (14 mg, 8 hr, read-out: Plasma concentration, Q3): 32.3 ng/mL | concentration at 9 h (14 mg, 9 hr, read-out: Plasma concentration, Maximum): 34.2 ng/mL | concentration at 9 h (14 mg, 9 hr, read-out: Plasma concentration, Mean): 30.1 ng/mL | concentration at 9 h (14 mg, 9 hr, read-out: Plasma concentration, Median): 30.8 ng/mL | concentration at 9 h (14 mg, 9 hr, read-out: Plasma concentration, Minimum): 22.8 ng/mL | concentration at 9 h (14 mg, 9 hr, read-out: Plasma concentration, Q1): 28.4 ng/mL | concentration at 9 h (14 mg, 9 hr, read-out: Plasma concentration, Q3): 33.5 ng/mL | concentration at 0.5 h [7]: 48.7 ng/mL | concentration at 0.5 hr [8]: 34.4 ng/mL | concentration at 0.5 hr [9]: 32 ng/mL | concentration at 0.5 hr [10]: 19.1 ng/mL | concentration at 0.5 hr [11]: 29.6 ng/mL | concentration at 0.5 h [12]: 42.6 ng/mL | concentration at 1 h [7]: 51.8 ng/mL | concentration at 1 hr [8]: 37.9 ng/mL | concentration at 1 hr [9]: 36.6 ng/mL | concentration at 1 hr [10]: 21.7 ng/mL | concentration at 1 hr [11]: 36.5 ng/mL | concentration at 1 h [12]: 42.8 ng/mL | concentration at 1.5 h [7]: 55.9 ng/mL | concentration at 1.5 hr [8]: 44.9 ng/mL | concentration at 1.5 h [9]: 47.1 ng/mL | concentration at 1.5 hr [10]: 27.2 ng/mL | concentration at 1.5 hr [11]: 44.4 ng/mL | concentration at 1.5 h [12]: 49.9 ng/mL | concentration at 2 h (28 mg, 2 hr, read-out: Plasma concentration, Maximum): 58.4 ng/mL | concentration at 2 hr (28 mg, 2 hr, read-out: Plasma concentration, Mean): 50.1 ng/mL | concentration at 2 h (28 mg, 2 hr, read-out: Plasma concentration, Median): 54.9 ng/mL
